Legend:
Assay type in all cases: in vivo
rice (Oryza sativa) = assay: Test C flooded paddy test; conditions: Flood, scale 0 to 100
Experimental: (§1) At the same time, plants selected from these crop and weed species and also winter barley (Hordeum vulgare), blackgrass (Alopecurus myosuroides), canarygrass (Phalaris minor), chickweed (Stellaria media), downy brome (Bromus tectorum), green foxtail (Setaria viridis), Italian ryegrass (Lolium multiflorum), wheat (Triticum aestivum), wild oat (Avena fatua) and windgrass (Apera spica-venti) were treated with postemergence applications of some of the test chemicals formulated in the same manner. Plants ranged in height from 2 to 18 cm (1- to 4-leaf stage) for postemergence treatments. Plant species in the flooded paddy test consisted of rice (Oryza sativa), umbrella sedge (Cyperus difformis), duck salad (Heteranthera limosa) and barnyardgrass (Echinochloa crus-galli) grown to the 2-leaf stage for testing. Treated plants and controls were maintained in a greenhouse for 12 to 14 days, after which time all species were compared to controls and visually evaluated. Plant response ratings, summarized in Table C, are based on a scale of 0 to 100 where 0 is no effect and 100 is complete control. A dash (-) response means no test result.

[1] = test system: barnyardgrass (Echinochloa crus-galli); assay: Test C flooded paddy test; conditions: Flood
Experimental: as §1

[2] = test system: umbrella sedge (Cyperus difformis); assay: Test C flooded paddy test; conditions: Flood, scale 0 to 100
Experimental: as §1

[3] = test system: duck salad (Heteranthera limosa); assay: Test C flooded paddy test; conditions: Flood, scale 0 to 100
Experimental: as §1

[4] = test system: windgrass (Apera spica-venti); assay: Test C postemergence
Procedure, shortened: (§2)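 Rating scale 0–100: 0 means no effect, 100 complete control; taken visually 12 to 14 days post-treatment versus controls. Pre- and postemergence greenhouse applications, postemergence at 1- to 4-leaf stage, non-phytotoxic solvent with surfactant as carrier.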

[5] = test system: winter barley (Hordeum vulgare); assay: Test C postemergence; conditions: for Barley plant response rating: scale 0 to 100 (0 no effect, 100 complete control)
Procedure, shortened: as §2

wild oat (Avena fatua) = assay: Test C postemergence
Procedure, shortened: as §2

[6] = test system: green foxtail (Setaria viridis); assay: Test C postemergence
Procedure, shortened: as §2

[7] = test system: blackgrass (Alopecurus myosuroides); assay: Test C postemergence
Procedure, shortened: as §2

[8] = test system: Italian ryegrass (Lolium multiflorum); assay: Test C postemergence
Procedure, shortened: as §2

[9] = test system: canarygrass (Phalaris minor); assay: Test C postemergence
Procedure, shortened: as §2

[10] = test system: downy brome (Bromus tectorum); assay: Test C postemergence
Procedure, shortened: as §2

[11] = test system: wheat (Triticum aestivum); assay: Test C postemergence
Procedure, shortened: as §2

[12] = test system: late watergrass (Echinochloa oryzicola); assay: Test E flooded paddy water application; conditions: Flood, 21 days, scale 0 to 100 (0 no effect, 100 complete control)
Procedure, shortened: (§3)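 Response scored visually on a 0–100 scale (100 = complete control) at 21 days against untreated pots. Treatment was into paddy water 3 cm deep over silt loam, with plants at the 2.0–2.5-leaf stage, grown under 16-h light at 29.5/26.7 °C day/night.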

[13] = test system: smallflower umbrella sedge (Cyperus difformis); assay: Test E flooded paddy water application; conditions: Flood, 21 days, scale 0 to 100 (0 no effect, 100 complete control)
Procedure, shortened: as §3

[14] = 500 g ai/ha, scale 0 to 100 (0 no effect, 100 complete control)
[15] = 125 g ai/ha, scale 0 to 100 (0 no effect, 100 complete control)

SMILES: CNc1nc(C2CC2)nc(C(=O)OC)c1Br [Compound 5]
- Plant response rating, Rice (rice (Oryza sativa); 62 g ai/ha): 0
- Plant response rating, Rice (rice (Oryza sativa); 125 g ai/ha): 0
- Plant response rating, Rice (rice (Oryza sativa); 250 g ai/ha): 0
- Plant response rating, Rice (rice (Oryza sativa); 500 g ai/ha): 0
- Plant response rating, Barnyardgrass ([1]; 62 g ai/ha, scale 0 to 100): 0
- Plant response rating, Barnyardgrass ([1]; 125 g ai/ha, scale 0 to 100): 0
- Plant response rating, Barnyardgrass ([1]; 250 g ai/ha, scale 0 to 100): 0
- Plant response rating, Barnyardgrass [1, 14]: 20
- Plant response rating, Sedge, Umbrella ([2]; 62 g ai/ha): 0
- Plant response rating, Sedge, Umbrella ([2]; 125 g ai/ha): 0
- Plant response rating, Sedge, Umbrella ([2]; 250 g ai/ha): 0
- Plant response rating, Sedge, Umbrella ([2]; 500 g ai/ha): 0
- Plant response rating, Ducksalad ([3]; 62 g ai/ha): 0
- Plant response rating, Ducksalad ([3]; 125 g ai/ha): 0
- Plant response rating, Ducksalad ([3]; 250 g ai/ha): 0
- Plant response rating, Ducksalad ([3]; 500 g ai/ha): 0

SMILES: COC(=O)c1nc(C2CC2)nc(N)c1Cl [Compound 9, methyl 6-amino-5-chloro-2-cyclopropyl-4-pyrimidinecarboxylate]
- Plant response rating, Rice (rice (Oryza sativa); 62 g ai/ha): 0
- Plant response rating, Rice (rice (Oryza sativa); 125 g ai/ha): 30
- Plant response rating, Rice (rice (Oryza sativa); 250 g ai/ha): 55
- Plant response rating, Rice (rice (Oryza sativa); 500 g ai/ha): 75
- Plant response rating, Barnyardgrass ([1]; 62 g ai/ha, scale 0 to 100): 0
- Plant response rating, Barnyardgrass ([1]; 125 g ai/ha, scale 0 to 100): 15
- Plant response rating, Barnyardgrass ([1]; 250 g ai/ha, scale 0 to 100): 55
- Plant response rating, Barnyardgrass [1, 14]: 85
- Plant response rating, Sedge, Umbrella ([2]; 62 g ai/ha): 0
- Plant response rating, Sedge, Umbrella ([2]; 125 g ai/ha): 15
- Plant response rating, Sedge, Umbrella ([2]; 250 g ai/ha): 15
- Plant response rating, Sedge, Umbrella ([2]; 500 g ai/ha): 85
- Plant response rating, Ducksalad ([3]; 62 g ai/ha): 45
- Plant response rating, Ducksalad ([3]; 125 g ai/ha): 70
- Plant response rating, Ducksalad ([3]; 250 g ai/ha): 80
- Plant response rating, Ducksalad ([3]; 500 g ai/ha): 90

SMILES: COC(=O)c1nc(-c2ccc(Br)cc2)nc(N)c1Br [Compound 129]
- Plant response rating (scale of 0 to 100), Windgrass ([4]; 16 g ai/ha): 40
- Plant response rating (scale of 0 to 100), Windgrass ([4]; 31 g ai/ha): 45
- Plant response rating (scale of 0 to 100), Windgrass ([4]; 62 g ai/ha): 60
- Windgrass plant response rating [4, 15]: 60
- Plant response rating (scale of 0 to 100), Barley ([5]; 16 g ai/ha): 35
- Plant response rating (scale of 0 to 100), Barley ([5]; 31 g ai/ha): 40
- Barley plant response rating ([5]; 62 g ai/ha): 45
- Barley plant response rating ([5]; 125 g ai/ha): 45
- Plant response rating (scale of 0 to 100), Oat, Wild (wild oat (Avena fatua); 16 g ai/ha): 30
- Plant response rating (scale of 0 to 100), Oat, Wild (wild oat (Avena fatua); 31 g ai/ha): 35
- Plant response rating (scale of 0 to 100), Oat, Wild (wild oat (Avena fatua); 62 g ai/ha): 40
- Oat, Wild plant response rating (wild oat (Avena fatua); [15]): 40
- Plant response rating (scale of 0 to 100), Foxtail, Green ([6]; 16 g ai/ha): 40
- Plant response rating (scale of 0 to 100), Foxtail, Green ([6]; 31 g ai/ha): 40
- Plant response rating (scale of 0 to 100), Foxtail, Green ([6]; 62 g ai/ha): 40
- Foxtail, Green plant response rating [6, 15]: 60
- Plant response rating (scale of 0 to 100), Blackgrass ([7]; 16 g ai/ha): 35
- Plant response rating (scale of 0 to 100), Blackgrass ([7]; 31 g ai/ha): 45
- Plant response rating (scale of 0 to 100), Blackgrass ([7]; 62 g ai/ha): 50
- Blackgrass plant response rating [7, 15]: 50
- Plant response rating (scale of 0 to 100), Ryegrass, Italian ([8]; 16 g ai/ha): 45
- Plant response rating (scale of 0 to 100), Ryegrass, Italian ([8]; 31 g ai/ha): 55
- Plant response rating (scale of 0 to 100), Ryegrass, Italian ([8]; 62 g ai/ha): 55
- Ryegrass, Italian plant response rating [8, 15]: 60
- Plant response rating (scale of 0 to 100), Canarygrass ([9]; 16 g ai/ha): 0
- Plant response rating (scale of 0 to 100), Canarygrass ([9]; 31 g ai/ha): 30
- Plant response rating (scale of 0 to 100), Canarygrass ([9]; 62 g ai/ha): 30
- Canarygrass plant response rating [9, 15]: 30
- Plant response rating (scale of 0 to 100), Bromegrass, Downy ([10]; 16 g ai/ha): 0
- Plant response rating (scale of 0 to 100), Bromegrass, Downy ([10]; 31 g ai/ha): 0
- Plant response rating (scale of 0 to 100), Bromegrass, Downy ([10]; 62 g ai/ha): 0
- Bromegrass, Downy plant response rating [10, 15]: 0
- Plant response rating (scale of 0 to 100), Wheat ([11]; 16 g ai/ha): 0
- Plant response rating (scale of 0 to 100), Wheat ([11]; 31 g ai/ha): 35
- Plant response rating (scale of 0 to 100), Wheat ([11]; 62 g ai/ha): 35
- Wheat plant response rating [11, 15]: 35
- Watergrass, Late plant response rating ([12]; 64 g ai/ha): 0
- Watergrass, Late plant response rating ([12]; 125 g ai/ha): 0
- Watergrass, Late plant response rating ([12]; 250 g ai/ha): 0
- Plant response rating, Watergrass, Late ([12]; 16 g ai/ha): 0
- Plant response rating, Watergrass, Late ([12]; 32 g ai/ha): 0
- Sedge, Umbrella plant response rating ([13]; 64 g ai/ha): 80
- Sedge, Umbrella plant response rating ([13]; 125 g ai/ha): 100
- Sedge, Umbrella plant response rating ([13]; 250 g ai/ha): 100
- Plant response rating, Sedge, Umbrella ([13]; 16 g ai/ha): 0
- Plant response rating, Sedge, Umbrella ([13]; 32 g ai/ha): 60

Reference: patent publication US8802597B2, “Herbicidal pyrimidines” (E I du Pont de Nemours and Company, priority 2003, dated 2014)
